Results as given in PubChem BioAssay (NCI).
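A five-concentration, 48-hour dose response in 96-well plates underlies each endpoint, interpolated linearly between surrounding concentrations. At the GI50, growth is halved. At the TGI there is no net growth.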

Legend:
Assay in all cases: NCI-60 cell line screen, 48 h
CAKI-1 renal = system: CAKI-1 renal
DLD-1 colon = system: DLD-1 colon
KM20L2 colon = system: KM20L2 colon
OVCAR-8 ovarian = system: OVCAR-8 ovarian
HOP-18 NSCLC = system: HOP-18 NSCLC
LOX IMVI melanoma = system: LOX IMVI melanoma
LXFL 529 NSCLC = system: LXFL 529 NSCLC
SF-268 CNS = system: SF-268 CNS
DMS 114 small cell lung = system: DMS 114 small cell lung
M19-MEL melanoma = system: M19-MEL melanoma
MCF7 breast = system: MCF7 breast
MDA-MB-435 = system: MDA-MB-435
BT-549 breast = system: BT-549 breast

| Structure (SMILES) | TGI (CAKI-1 renal) | TGI (DLD-1 colon) | TGI (KM20L2 colon) | TGI (OVCAR-8 ovarian) | TGI (HOP-18 NSCLC) | TGI (LOX IMVI melanoma) | TGI (LXFL 529 NSCLC) | TGI (SF-268 CNS) | TGI (DMS 114 small cell lung) | TGI (M19-MEL melanoma) | GI50 (MCF7 breast) | TGI (MCF7 breast) | GI50 (MDA-MB-435) | TGI (MDA-MB-435) | GI50 (BT-549 breast) | TGI (BT-549 breast) |
| --- | --- | --- | --- | --- | --- | --- | --- | --- | --- | --- | --- | --- | --- | --- | --- | --- |
| CCC(C)COC(=O)c1ccc(N=Cc2ccc(C=Nc3ccc(C(=O)OCC(C)CC)cc3)cc2)cc1 (stereo not drawn) | > 100 µM | > 100 µM | > 100 µM | > 100 µM | > 100 µM | > 100 µM | > 100 µM | > 100 µM | > 100 µM |  |  |  |  |  |  |  |
| CC(=O)c1sc(Nc2nnc(-c3ccc(-c4nnc(Nc5nc(C)c(C(C)=O)s5)o4)cc3)o2)nc1C | > 10 µM | > 100 µM | > 100 µM | > 100 µM | > 100 µM | > 100 µM | > 100 µM | > 100 µM | > 100 µM |  |  |  |  |  |  |  |
| CC1CN(C(=O)CN2CCC(CCCCN(C)C)CC2)c2ccccc2NC1=O (stereo not drawn) | > 100 µM | > 100 µM | > 100 µM |  | > 100 µM | > 100 µM | > 100 µM | > 100 µM | > 100 µM | > 100 µM |  |  |  |  |  |  |
| CC(=O)OC12C=CC(=O)N1c1ccccc1C(=O)O2 (stereo not drawn) | > 100 µM | > 100 µM | > 100 µM | > 100 µM | > 100 µM | > 100 µM | > 100 µM | > 100 µM |  | > 100 µM | > 100 µM | > 100 µM | > 100 µM | > 100 µM | > 100 µM | > 100 µM |
| CN=C1CC2c3cc(OC)c(OC)cc3CCN2C2=C1C(=O)CC(C)(C)C2 (stereo not drawn) | > 100 µM | > 100 µM | > 100 µM | > 100 µM |  | > 100 µM | > 100 µM | > 100 µM | > 100 µM | > 100 µM |  |  |  |  |  |  |
| O=C(/C=C/c1cccc2ccccc12)c1ccccc1Cl | 27.9 µM | 24 µM | 25.6 µM | 26.7 µM | 33.3 µM |  | 26.8 µM | 36.5 µM | 27.6 µM |  |  |  |  |  |  |  |
| CCCc1nc(NC#N)nc(C(=O)Nc2ccccc2)c1CC | > 100 µM | > 100 µM | > 100 µM | > 100 µM | > 100 µM | > 100 µM | > 100 µM | > 100 µM | > 100 µM | > 100 µM |  |  |  |  |  |  |
| CN(C)CC1CCCC/C1=N/OC(=O)c1ccc(Cl)cc1 (stereo not drawn) | > 100 µM | > 100 µM | > 100 µM | > 100 µM | > 100 µM | > 100 µM | > 100 µM | > 100 µM |  | > 100 µM |  |  |  |  |  |  |
| COC(=O)C(Cc1nc2ccc(Cl)cc2[nH]c1=O)/C(=N\N)C(=O)Nc1cc(C)c(Cl)cc1S(=O)(=O)O (stereo not drawn) | > 100 µM | > 100 µM |  | > 100 µM |  | > 100 µM | > 100 µM | > 100 µM | > 100 µM |  |  |  |  |  |  |  |
| CC12CP(=O)(c3ccccc3)CC1C2(Cl)Cl (stereo not drawn) |  | > 100 µM | > 100 µM | > 100 µM | > 100 µM | > 100 µM | > 100 µM |  | > 100 µM | > 100 µM |  |  |  |  |  |  |
| CN1CCOC(c2ccccc2)O1 (stereo not drawn) | > 100 µM | > 100 µM | > 100 µM | > 100 µM | > 100 µM | > 100 µM | > 100 µM | > 100 µM | > 100 µM | > 100 µM |  |  |  |  |  |  |
